Data published in patent publication US20250270180A1, “MEK INHIBITORS AND THERAPEUTIC USES THEREOF” (Immuneering Corporation, priority 2020, published 2025).
“And” between values parts separate entries of the source, which are not always exact repeats. Identical values can stand only once.

Tests used:
A549 (KRAS-G12S) pERK = assay: Cell-based pERK dose response study, A549
Experimental: (§1) Materials and Methods: A549 or A375 cells were seeded in 6-well plates at an appropriate seeding density on day 0. On day 2 or 3, after checking the health and confluency of cells, the media was aspirated and replaced with 1 mL media containing a predetermined concentration of compound and incubated for 2 hours. After 2 hours, the media was aspirated, and the cells washed 2 times with cold PBS. Cells were lysed on ice, with 50 uL 1×CST lysis buffer+1 mM PMSF for 5 minutes. After 5 minutes, cells were removed using a scraper and transferred to cold 1.5 mL tubes, and centrifuged for 10 min, 4° C., 14,000×g. Supernatant was gently removed and snap frozen in liquid nitrogen. Protein concentration of the lysate was determined using Bradford Reagent (analyzed using SpectraMax M2E) and diluted to 1 mg/mL or pERK or 1.5 mg/mL for pMEK analysis. […] All dilutions were in Milk-free antibody diluent.

A375 pERK:tERK = assay: Cell-based pERK:tERK, A375
Experimental: as §1

[1] = Human liver microsome stability (t1/2, Clint); format: in vitro ADME; conditions: microsomes, pH 7.4, 0.5 mg/ml microsomal protein
[2] = system: A549 (KRAS G12S) pERK: total ERK; assay: Phospho-ERK screen in A549 (KRAS G12S); format: cell-based; conditions: 10 μM for 2 hours
Experimental: Materials and Methods: A549 or A375 cells were seeded in 6-well plates at an appropriate seeding density on day 0. On day 2 or 3, after checking the health and confluency of cells, the media was aspirated and replaced with 1 mL media containing a predetermined concentration of compound and incubated for 2 hours. After 2 hours, the media was aspirated, and the cells washed 2 times with cold PBS. Cells were lysed on ice, with 50 uL 1×CST lysis buffer+1 mM PMSF for 5 minutes. After 5 minutes, cells were removed using a scraper and transferred to cold 1.5 mL tubes, and centrifuged for 10 min, 4° C., 14,000×g. Supernatant was gently removed and snap frozen in liquid nitrogen. Protein concentration of the lysate was determined using Bradford Reagent (analyzed using SpectraMax M2E) and diluted to 1 mg/mL or pERK or 1.5 mg/mL for pMEK analysis. Cell lysates were then analyzed for phosphor-ERK/total-ERK levels on a Jess system (ProteinSimple; Cat #JS3346) using the following antibodies: tERK1/2 (CST 4696; 1:50) and pERK1/2 (CST 4377; 1:50). For pMEK/tMEK, the following antibodies were used: tMEK1/2 (CST 4694; 1:15) and pMEK1/2 (CST 9154; 1:400). All dilutions were in Milk-free antibody diluent.
The results of a phospho-ERK Screen in A549 (KRAS G12S) study is described in Table 7, 7A, 7B, and 8 below.

[3] = Metabolite ID study, mouse hepatocytes; format: in vitro ADME; conditions: 10 uM compound 9, T=60 min
Experimental: (§2) Animal Studies: Compound 9 was tested using six species hepatocytes in a metabolite ID study (T=60 min).
(§3) Cryopreserved hepatocytes from a selected species were thawed and incubated in duplicate with 10 uM compound 9 in Krebs-Henseleit buffer. […] Viability of hepatocytes was >70% after thawing.
(§4) (Eppendorf 5804R). […] The disappearance of the parent compound was determined, and the formation of metabolites was evaluated. Metabolites present at >1% of total compound related material (based on peak area) were identified by interpretation of the LC-MS/MS data.
(§5) MS settings were optimized for the flow rate. Full scan spectra were acquired in combination with data dependent MS2.
(§6) The spectra obtained from all samples were screened for the presence of m/z values that are absent in the blank incubations (incubations with hepatocytes without compound and with vehicle control, and incubations of compound in buffer without hepatocytes). T=60 min incubations were used as an initial screening. All possible metabolites observed were semi-quantified by MS response (peak area). MS2 spectra were interpreted to determine possible location of the metabolism reaction. The presence of metabolites identified was compared across the selected species.

[4] = Metabolite ID study, rat hepatocytes; format: in vitro ADME; conditions: 10 uM compound 9, T=60 min
Experimental: as §2, §3, §4, §5, §6

[5] = Metabolite ID study, rabbit hepatocytes; format: in vitro ADME; conditions: 10 uM compound 9, T=60 min
Experimental: as §2, §3, §4, §5, §6

[6] = Metabolite ID study, human hepatocytes; format: in vitro ADME; conditions: 10 uM compound 9, T=60 min
Experimental: as §2, §3, §4, §5, §6

hERG Channel = hERG Channel (Homo sapiens, UniProt Q12809); assay: in vitro
hERG Channel, sequence (Q12809 whole entry): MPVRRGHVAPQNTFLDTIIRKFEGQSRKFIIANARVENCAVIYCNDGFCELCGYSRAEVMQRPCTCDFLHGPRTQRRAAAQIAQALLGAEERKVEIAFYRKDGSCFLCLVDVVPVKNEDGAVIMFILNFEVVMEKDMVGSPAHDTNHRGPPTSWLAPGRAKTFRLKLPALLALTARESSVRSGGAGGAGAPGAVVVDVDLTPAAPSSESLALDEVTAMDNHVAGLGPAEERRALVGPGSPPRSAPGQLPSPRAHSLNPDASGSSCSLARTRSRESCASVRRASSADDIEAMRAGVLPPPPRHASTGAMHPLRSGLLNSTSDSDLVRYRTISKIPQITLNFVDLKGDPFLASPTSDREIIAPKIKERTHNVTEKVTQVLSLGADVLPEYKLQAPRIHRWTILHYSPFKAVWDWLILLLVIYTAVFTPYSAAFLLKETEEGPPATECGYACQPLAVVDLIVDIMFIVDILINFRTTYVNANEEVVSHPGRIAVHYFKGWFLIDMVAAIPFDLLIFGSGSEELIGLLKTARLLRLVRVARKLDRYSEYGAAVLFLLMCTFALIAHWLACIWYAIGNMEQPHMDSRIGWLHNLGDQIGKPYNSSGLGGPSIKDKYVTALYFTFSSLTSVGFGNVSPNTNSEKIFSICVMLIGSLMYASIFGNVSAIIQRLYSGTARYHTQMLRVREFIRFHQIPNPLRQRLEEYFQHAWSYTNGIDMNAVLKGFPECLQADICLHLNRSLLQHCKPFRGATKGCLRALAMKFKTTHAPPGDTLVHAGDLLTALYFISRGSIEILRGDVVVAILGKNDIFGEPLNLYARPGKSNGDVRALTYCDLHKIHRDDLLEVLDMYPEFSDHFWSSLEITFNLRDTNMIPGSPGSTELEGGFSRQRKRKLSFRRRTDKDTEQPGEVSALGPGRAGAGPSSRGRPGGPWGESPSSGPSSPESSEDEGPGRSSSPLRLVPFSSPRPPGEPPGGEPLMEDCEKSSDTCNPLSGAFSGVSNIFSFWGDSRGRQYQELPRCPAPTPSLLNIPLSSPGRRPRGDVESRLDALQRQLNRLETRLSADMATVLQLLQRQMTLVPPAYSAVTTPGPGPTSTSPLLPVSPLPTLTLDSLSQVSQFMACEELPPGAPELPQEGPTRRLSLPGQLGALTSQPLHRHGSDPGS

## CNS(=O)(=O)Nc1cccc(Cc2c(CN(C)C)c3ccc(OC(=O)N(C)C)cc3oc2=O)c1F [Compound 9]
A549 (KRAS-G12S) pERK; 10 nM, 2 hr
  A549 pERK:tERK ratio [10 nM; 2 hr]: 0.62
A549 (KRAS-G12S) pERK; Homo sapiens, A549, 12-point dose, 2 hours
  IC50: 0.0198 µM
A375 pERK:tERK
  A375 pERK:tERK ratio [10 nM; 2 hr]: 0.71
[1]
  half-life at 1 uM: 35 min
  microsomal CLint at 1 uM: 40 µL/min/mg
[2]
  pERK: total ERK (% relative to vehicle): 0.60% and 1.81%
[3]
  % of total compound related material based on peak area, Mouse: 97%
[4]
  % of total compound related material based on peak area, Rat: 95%
[5]
  % of total compound related material based on peak area, Rabbit: 93%
[6]
  % of total compound related material based on peak area, Human: 99%
hERG Channel
  IC50: 26.2 µM
